Source: PubChem BioAssay (NCI)
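Each compound was tested at five concentrations against cells in 96-well plates for 48 hours. GI50 is the concentration that inhibits growth by half. The concentration for full growth arrest is given as TGI.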

How the values were obtained:
Assay in all cases: inhibition of tumour cell growth, NCI panel, 48 h
NCI-H23 lung = system: NCI-H23 lung
NCI-H460 lung = system: NCI-H460 lung
NCI-H522 lung = system: NCI-H522 lung
NCI/ADR-RES ovarian = system: NCI/ADR-RES ovarian
OVCAR-3 ovarian = system: OVCAR-3 ovarian
OVCAR-4 ovarian = system: OVCAR-4 ovarian
OVCAR-5 ovarian = system: OVCAR-5 ovarian
OVCAR-8 ovarian = system: OVCAR-8 ovarian
PC-3 prostate = system: PC-3 prostate
RPMI-8226 leukemia = system: RPMI-8226 leukemia
RXF 393 renal = system: RXF 393 renal
SF-268 CNS = system: SF-268 CNS
SF-295 CNS = system: SF-295 CNS
SF-539 CNS = system: SF-539 CNS
SK-MEL-2 melanoma = system: SK-MEL-2 melanoma
SK-MEL-28 melanoma = system: SK-MEL-28 melanoma
SK-MEL-5 melanoma = system: SK-MEL-5 melanoma
SK-OV-3 ovarian = system: SK-OV-3 ovarian
SN12C renal = system: SN12C renal
SNB-19 CNS = system: SNB-19 CNS
SNB-75 CNS = system: SNB-75 CNS
SR leukemia = system: SR leukemia
SW-620 colon = system: SW-620 colon
T-47D breast = system: T-47D breast
TK-10 renal = system: TK-10 renal
U251 CNS = system: U251 CNS
UACC-257 melanoma = system: UACC-257 melanoma
UACC-62 melanoma = system: UACC-62 melanoma
UO-31 renal = system: UO-31 renal

With COc1ccc2c(C3=C(c4cn(C)c5ccccc45)C(=O)NC3=O)coc2c1 the GI50 (NCI-H23 lung) was 0.804 µM, the TGI (NCI-H23 lung) was 23.6 µM and the GI50 (NCI-H460 lung) was 0.353 µM. For the same compound, the TGI (NCI-H460 lung) was 11.6 µM, the GI50 (NCI-H522 lung) was 0.188 µM and the TGI (NCI-H522 lung) was 0.754 µM. For the same compound, the GI50 (NCI/ADR-RES ovarian) was 0.207 µM, the TGI (NCI/ADR-RES ovarian) was 15 µM and the GI50 (OVCAR-3 ovarian) was 0.193 µM. It also gave a TGI (OVCAR-3 ovarian) of 0.787 µM, a GI50 (OVCAR-4 ovarian) of 6.91 µM and a TGI (OVCAR-4 ovarian) of 65.9 µM. The GI50 (OVCAR-5 ovarian) was 0.901 µM, the TGI (OVCAR-5 ovarian) was 30.7 µM and the GI50 (OVCAR-8 ovarian) was 0.462 µM. The TGI (OVCAR-8 ovarian) was 16.5 µM, the GI50 (PC-3 prostate) was 0.471 µM and the TGI (PC-3 prostate) was > 100 µM. The GI50 (RPMI-8226 leukemia) was 0.415 µM, the TGI (RPMI-8226 leukemia) was 12.6 µM and the GI50 (RXF 393 renal) was 0.215 µM. It also gave a TGI (RXF 393 renal) of 1.24 µM, a GI50 (SF-268 CNS) of 1.19 µM and a TGI (SF-268 CNS) of 27.9 µM. It also gave a GI50 (SF-295 CNS) of 0.469 µM, a TGI (SF-295 CNS) of 15.1 µM and a GI50 (SF-539 CNS) of 0.272 µM. The TGI (SF-539 CNS) was 1.66 µM, the GI50 (SK-MEL-2 melanoma) was 0.191 µM and the TGI (SK-MEL-2 melanoma) was 0.931 µM. The GI50 (SK-MEL-28 melanoma) was 4.95 µM, the TGI (SK-MEL-28 melanoma) was 35 µM and the GI50 (SK-MEL-5 melanoma) was 0.422 µM. The TGI (SK-MEL-5 melanoma) was 7.3 µM, the GI50 (SK-OV-3 ovarian) was 0.368 µM and the TGI (SK-OV-3 ovarian) was 47.2 µM. For the same compound, the GI50 (SN12C renal) was 0.715 µM, the TGI (SN12C renal) was 15.3 µM and the GI50 (SNB-19 CNS) was 0.712 µM. For the same compound, the TGI (SNB-19 CNS) was 70.4 µM, the GI50 (SNB-75 CNS) was 0.148 µM and the TGI (SNB-75 CNS) was 0.71 µM. For the same compound, the GI50 (SR leukemia) was 0.0849 µM, the TGI (SR leukemia) was 8.68 µM and the GI50 (SW-620 colon) was 0.176 µM. For the same compound, the TGI (SW-620 colon) was > 57.9 µM, the GI50 (T-47D breast) was 0.43 µM and the TGI (T-47D breast) was 45.5 µM. It also gave a GI50 (TK-10 renal) of 13.6 µM, a TGI (TK-10 renal) of 59.7 µM and a GI50 (U251 CNS) of 0.411 µM. It also gave a TGI (U251 CNS) of 13 µM, a GI50 (UACC-257 melanoma) of 1.44 µM and a TGI (UACC-257 melanoma) of 27.6 µM. For the same compound, the GI50 (UACC-62 melanoma) was 0.186 µM, the TGI (UACC-62 melanoma) was 16.6 µM and the GI50 (UO-31 renal) was 0.468 µM. For the same compound, the TGI (UO-31 renal) was 23.5 µM.
